# Patent US20180125068A1, “OCTANOIC, NONANOIC AND DECANOIC FATTY ACIDS WITH PYRETHROID ADULTICIDES” (priority 2016, published 2018)
# Where two headings read alike, the source gives them in different places.
# How the values were obtained:
# [1] = test system: Aedes aegypti resistant to permethrin (Key West strain); experiment: Wind tunnel bioassay, various pyrethroids (Example 7); type: in vivo; details: pyrethroid alone 0.5% A.I., C8910 0%, 24 hours post-spray, mean
# Description: This exposed 80 caged A. aegypti to the spray. Each test was replicated four times.
# [2] = test system: pyrethroid susceptible Aedes aegypti; experiment: CDC bottle bioassay, susceptible strain; type: in vivo
# Experimental: (§1) The following bioassays were performed to determine how pyrethroid susceptible and pyrethroid resistant Aedes aegypti responded to exposure to permethrin and the fatty acids mixture, separately and combined. The standard Centers for Disease Control (“CDC”) bottle bioassay method was used. The testing was conducted at Centro Internacional de Entrenamiento e Investigaciones Médicas (“CIDEIM”) in Colombia with susceptible and resistant Aedes aegypti. The compounds were diluted in acetone, added to the bottles, and bottles were rolled to coat them internally until dry. Susceptible and resistant mosquitoes were exposed inside the treated bottles.
# (§2) Bottle bioassays assess susceptibility by measuring time-to-death of mosquitoes exposed in bottles coated internally with a “diagnostic concentration” of the test compound.
# [3] = test system: pyrethroid resistant Aedes aegypti; experiment: CDC bottle bioassay, resistant strain; type: in vivo; details: bottle coated with diagnostic concentration, n=5
# Experimental: as §1, §2
# [4] = test system: Aedes aegypti resistant and susceptible to permethrin; experiment: WHO wind tunnel bioassay (Example 4); type: in vivo; details: 24 hour mortality
# Experimental: In this bioassay, the standard WHO wind tunnel bioassay was used by CIDEIM. Aedes aegypti that were known to be resistant and susceptible to permethrin were used in the studies. […] solutions were prepared with the following ratios of C8, 9, 10 fatty acids mixture to permethrin: 2:1 (0.67% C8910+0.33% permethrin); 1:1 (0.5% C8910+0.5% permethrin); and 1:2 (0.33% C8910+0.67% permethrin). A one percent permethrin formulation was tested as well as a C8, 9, 10 fatty acids mixture.
# The solutions were diluted in acetone to 1%, 0.1%, 0.01%, 0.001%, 0.0001%, and 0.00001%. Then 0.5 ml of each dilution was sprayed into the wind tunnel. This exposed 20 caged mosquitos to the spray. Each test was replicated three times. The 24 hour mortality was then observed. This type of assay is desirable because it tests the compounds without being formulated.
# [5] = test system: Aedes aegypti resistant to permethrin (Key West strain); details: observed, C8910 0%
# Description: (§3) In this bioassay, Aedes aegypti known to be resistant to permethrin (Key West strain) were exposed to C8, 9, 10 alone, permethrin alone, and combinations of C8, 9, 10 and permethrin at 1:5, 1:2, 1:1, 2:1 and 5:1 ratios in a standard wind tunnel bioassay. The actives were suspended in 1 milliliter oil-based ultra-low volume sprays and sprayed into the wind tunnel. This exposed 80 caged A. aegypti to the spray. Each test was replicated four times. Fifteen-minute, one-hour and twenty-four hour mortality of the resistant A. aegypti was then observed.
# (§4) Synergy was calculated using Abbott's synergy equation described in Levy Y et al., The joint action of fungicides in mixtures: comparison of two methods for synergy calculation, Bulletin OEPP/EPPO Bulletin, 1986, 16, 651-657. Specifically, a ratio greater than 1.0 of observed to expected percent mortality for combinations of two pesticides is evidence of synergy. Expected % mortality was calculated using the formula % Cexp=A+B−[…] where A is percent mortality of A. aegypti exposed to C8, 9, 10, B is percent mortality of A. aegypti exposed to permethrin and Cexp is expected percent mortality of A. aegypti exposed to a combination of C8, 9, 10 and permethrin.
# [6] = test system: A. aegypti susceptible to permethrin (Benzon research strain); details: observed, C8910 0%
# Description: as §3, §4
# In this assay, A. aegypti known to be susceptible to permethrin (Benzon research strain) were exposed to C8, 9, 10 alone, permethrin alone, and combinations of C8, 9, 10 and permethrin at 1:5, 1:2, 1:1, 2:1 and 5:1 ratios in a standard wind tunnel bioassay identical to that described above.
# [7] = test system: Cimex lectularius resistant to deltamethrin (Lex8 strain); details: observed, d-Phenothrin 0.375% alone
# Experimental: as §4
# (§5) The actives were suspended in 1 milliliter oil-based ultra-low volume sprays and sprayed into the wind tunnel. This exposed 10 adult male beg bugs to the spray. Each test was replicated three times. 1, 2, 3 and 4-day mortality of the bed bugs was then observed.
# [8] = test system: Cimex lectularius susceptible to insecticides (Harold Harlan strain); details: observed, d-Phenothrin 0.25% alone
# Experimental: as §4, §5
# [9] = susceptible strain, bottle coated with diagnostic concentration, n=5
compound,measurement,setting,value
"CC(C)=C[C@@H]1[C@@H](C(=O)O[C@H](C#N)c2cccc(Oc3ccccc3)c2)C1(C)C (relative stereo) [d,d,trans-cyphenothrin, d,d,trans-Cyphenothrin]",% Mortality 24 hour,[1],76%
CC1(C)C(C=C(Cl)Cl)C1C(=O)OCc1cccc(Oc2ccccc2)c1 (centres unmarked) [Permethrin],mortality,"[2]; susceptible mosquitos, at about 80 minutes, FIG. 1",~100%
same,LT50,[2]; [9],18.8 min
same,LT99,[2]; [9],99.3 min
same,LT50,[3],73.5 min
same,LT99,[3],306.7 min
same,mortality rate of resistant compared with susceptible mosquitos,[4],lower mortality rates
same,% Mortality,"[5]; 15 min, Permethrin 1.6%",28.1%
same,% Mortality,"[5]; 15 min, Permethrin 4.0%",34.4%
same,% Mortality,"[5]; 1 hour, Permethrin 1.6%",41.6%
same,% Mortality,"[5]; 1 hour, Permethrin 4.0%",49.4%
same,% Mortality,"[5]; 24 hour, Permethrin 1.6%",55.0%
same,% Mortality,"[5]; 24 hour, Permethrin 4.0%",63.4%
same,% Mortality,"[6]; 15 min, Permethrin 0.4%",4.4%
same,% Mortality,"[6]; 15 min, Permethrin 1.0%",26.9%
same,% Mortality,"[6]; 1 hour, Permethrin 0.4%",34.1%
same,% Mortality,"[6]; 1 hour, Permethrin 1.0%",54.4%
same,% Mortality,"[6]; 24 hour, Permethrin 0.4%",42.5%
same,% Mortality,"[6]; 24 hour, Permethrin 1.0%",65.3%
"CC(C)=CC1C(C(=O)OCc2cccc(Oc3ccccc3)c2)C1(C)C (stereo not drawn) [d-Phenothrin, Sumithrin (d-phenothrin)]",% Mortality,[7]; 1 day,6.7%
same,% Mortality,[7]; 2 days,10.0%
same,% Mortality,[8]; 1 day,0.0%
same,% Mortality,[8]; 2 days,0.0%
same,% Mortality,[8]; 3 days,46.7%
same,% Mortality,[8]; 4 days,56.7%
CC1(C)C(C(=O)OC(C#N)c2cccc(Oc3ccccc3)c2)C1(C)C (centres unmarked) [Fenpropathrin],mortality at 0.5 % strength,[1]; Aedes aegypti,65%
